# Experimental data reported in paper PMC8956739, “A synthetic lipopeptide targeting top-priority multidrug-resistant Gram-negative pathogens” (Nature Communications, 2022).
# How the values were obtained:
# [1] = tested on: A. baumannii AB5075; assay: Transcriptomic analysis (RNA-Seq) of bacteria; assay type: cell-based, Acinetobacter baumannii; details: for logFC (Differential gene expression for all genes), Geneid ABUW_RS00005 / logFC (Differential gene expression for all genes), Geneid ABUW_RS00020 / logFC (Fold change), gene ABUW_RS00010 / logFC (Fold change), gene ABUW_RS00030 / logFC (Fold change), gene ABUW_RS00035 / logFC (Fold change), gene recF (ABUW_RS00015) / 4h_1h logFC (Differential gene expression for all genes), Geneid ABUW_RS00005 / 4h_1h logFC (Differential gene expression for all genes), Geneid ABUW_RS00010 / 4h_1h logFC (Differential gene expression for all genes), Geneid ABUW_RS00015 / 4h_1h logFC (Differential gene expression for all genes), Geneid ABUW_RS00020: RNA-Seq A. baumannii AB5075; for log2FC, gene ABUW_RS01945 (acyl-CoA thioesterase II) / log2FC, gene ABUW_RS02545 (acyl-CoA thioesterase) / log2FC, gene ABUW_RS05045 (acyl-CoA thioesterase) / log2FC, gene ABUW_RS17575 (acyl-CoA thioesterase): pathway Fatty Acid and Lipid Degradation; for 4h_1h logFC (Differential gene expression for all genes), Geneid ABUW_RS00005 / 4h_1h logFC (Differential gene expression for all genes), Geneid ABUW_RS00010 / 4h_1h logFC (Differential gene expression for all genes), Geneid ABUW_RS00015 / 4h_1h logFC (Differential gene expression for all genes), Geneid ABUW_RS00020: 4h vs 1h
# Protocol: Mid-log phase A. baumannii AB5075 (~10^8 CFU/mL) in CaMHB was treated with colistin (2 and 8 μg/mL), F287, F319 or F365 (equimolar concentration to colistin) for 1 and 4 h. Total RNA was extracted using TRIzol Reagent (Invitrogen, USA) and RNeasy Mini Kit (Qiagen, Germany). Quality check of RNA samples was conducted with NanoDrop (Thermo Fisher Scientific, USA) and Agilent 2100 Bioanalyzer (Agilent Technologies, USA) for sequencing (150 bp paired-end) at Genewiz (Shanghai, China). Raw reads were aligned to A. baumannii AB5075 genome (GCF_000963815, https://www.ncbi.nlm.nih.gov/assembly/GCF_000963815.1/) using subread-aligner (subread 2.0.1) and summarized by featureCounts (subread 2.0.1). Principal component analysis (PCA) was conducted with mixOmics 6.14.1 in R. Differentially expressed genes were determined using limma 3.46.0 with a combination of fold change ≥ 2 and false discovery rate (FDR, by Benjamini–Hochberg algorithm) adjusted P-value ≤ 0.05 (n = 3). Enrichment analysis of gene differential expression in AB5075 was conducted using BioCyc (A. baumannii AB5075, version 25.5). UpSetR 1.4.0, ComplexHeatmap 2.6.2 and circlize 0.4.13 were used for data visualization. Raw data were deposited in Short Reads Archive (SRA) database under accession numbers SRR15235669-SRR15235725.
# [2] = tested on: A. baumannii AB5075; assay type: cell-based, Acinetobacter baumannii
# Outline: (§1)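 MICs came from broth microdilution in cation-adjusted Mueller–Hinton broth against clinical isolates. For surfactant binding, P. aeruginosa ATCC 27853 was additionally tested with 10% Survanta® (v/v, 2.5 mg/mL phospholipids) added to the polymyxin-containing broth.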
# [3] = tested on: A. baumannii ATCC 19606; assay type: cell-based, Acinetobacter baumannii
# Outline: (§2)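 Read-out is the minimum inhibitory concentration, obtained by serially diluting compound in cation-adjusted Mueller–Hinton medium and exposing each isolate in microdilution format.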
# [4] = tested on: A. baumannii FADDI-AB030; assay type: cell-based, Acinetobacter baumannii; details: carbapenem-resistant isolate
# Outline: as §1
# [5] = tested on: A. baumannii FADDI-AB034; assay type: cell-based, Acinetobacter baumannii; details: carbapenem-resistant isolate
# Outline: as §1
# [6] = tested on: P. aeruginosa ATCC 27853; assay type: cell-based, Pseudomonas aeruginosa
# Outline: as §2
# [7] = tested on: P. aeruginosa FADDI-PA025; assay type: cell-based, Pseudomonas aeruginosa; details: MDR clinical isolate
# Outline: as §1
# [8] = tested on: P. aeruginosa FADDI-PA038; assay type: cell-based, Pseudomonas aeruginosa; details: carbapenem-resistant isolate
# Outline: as §1
substance,measurement,setting,value
Colistin [reference compound],"logFC (Differential gene expression for all genes), Geneid ABUW_RS00005","[1]; H vs Cont, 1h",-0.1415
same,"logFC (Differential gene expression for all genes), Geneid ABUW_RS00020","[1]; H vs Cont, 1h",0.3148
same,"logFC (Fold change), gene ABUW_RS00010","[1]; H vs Cont, 1h",0.4448
same,"logFC (Fold change), gene ABUW_RS00030","[1]; H vs Cont, 1h",-0.4924
same,"logFC (Fold change), gene ABUW_RS00035","[1]; H vs Cont, 1h",1.135
same,"logFC (Fold change), gene recF (ABUW_RS00015)","[1]; H vs Cont, 1h",-0.2294
same,"log2FC, gene ABUW_RS01945 (acyl-CoA thioesterase II)","[1]; H vs Cont, 1h",0.3504
same,"log2FC, gene ABUW_RS02545 (acyl-CoA thioesterase)","[1]; H vs Cont, 1h",1.4185
same,"log2FC, gene ABUW_RS05045 (acyl-CoA thioesterase)","[1]; H vs Cont, 1h",0.5564
same,"log2FC, gene ABUW_RS17575 (acyl-CoA thioesterase)","[1]; H vs Cont, 1h",-1.353
same,"logFC (Differential gene expression for all genes), Geneid ABUW_RS00005","[1]; H vs Cont, 4h",-0.09217
same,"logFC (Differential gene expression for all genes), Geneid ABUW_RS00020","[1]; H vs Cont, 4h",-0.1513
same,"logFC (Fold change), gene ABUW_RS00010","[1]; H vs Cont, 4h",1.069
same,"logFC (Fold change), gene ABUW_RS00030","[1]; H vs Cont, 4h",-0.5349
same,"logFC (Fold change), gene ABUW_RS00035","[1]; H vs Cont, 4h",1.256
same,"logFC (Fold change), gene recF (ABUW_RS00015)","[1]; H vs Cont, 4h",-1.096
same,"log2FC, gene ABUW_RS01945 (acyl-CoA thioesterase II)","[1]; H vs Cont, 4h",-0.7138
same,"log2FC, gene ABUW_RS02545 (acyl-CoA thioesterase)","[1]; H vs Cont, 4h",0.6589
same,"log2FC, gene ABUW_RS05045 (acyl-CoA thioesterase)","[1]; H vs Cont, 4h",0.2411
same,"log2FC, gene ABUW_RS17575 (acyl-CoA thioesterase)","[1]; H vs Cont, 4h",-2.464
same,"4h_1h logFC (Differential gene expression for all genes), Geneid ABUW_RS00005",[1]; H,-0.3521
same,"4h_1h logFC (Differential gene expression for all genes), Geneid ABUW_RS00010",[1]; H,0.7488
same,"4h_1h logFC (Differential gene expression for all genes), Geneid ABUW_RS00015",[1]; H,-1.211
same,"4h_1h logFC (Differential gene expression for all genes), Geneid ABUW_RS00020",[1]; H,0.2283
same,"logFC (Differential gene expression for all genes), Geneid ABUW_RS00005","[1]; L vs Cont, 1h",-0.03172
same,"logFC (Differential gene expression for all genes), Geneid ABUW_RS00020","[1]; L vs Cont, 1h",0.1157
same,"logFC (Fold change), gene ABUW_RS00010","[1]; L vs Cont, 1h",-0.05024
same,"logFC (Fold change), gene ABUW_RS00030","[1]; L vs Cont, 1h",-0.1351
same,"logFC (Fold change), gene ABUW_RS00035","[1]; L vs Cont, 1h",-0.09136
same,"logFC (Fold change), gene recF (ABUW_RS00015)","[1]; L vs Cont, 1h",-0.09027
same,"log2FC, gene ABUW_RS01945 (acyl-CoA thioesterase II)","[1]; L vs Cont, 1h",0.4895
same,"log2FC, gene ABUW_RS02545 (acyl-CoA thioesterase)","[1]; L vs Cont, 1h",0.2839
same,"log2FC, gene ABUW_RS05045 (acyl-CoA thioesterase)","[1]; L vs Cont, 1h",-0.5862
same,"log2FC, gene ABUW_RS17575 (acyl-CoA thioesterase)","[1]; L vs Cont, 1h",0.3237
same,"logFC (Differential gene expression for all genes), Geneid ABUW_RS00005","[1]; L vs Cont, 4h",-0.01117
same,"logFC (Differential gene expression for all genes), Geneid ABUW_RS00020","[1]; L vs Cont, 4h",-0.1061
same,"logFC (Fold change), gene ABUW_RS00010","[1]; L vs Cont, 4h",0.1057
same,"logFC (Fold change), gene ABUW_RS00030","[1]; L vs Cont, 4h",-0.4634
same,"logFC (Fold change), gene ABUW_RS00035","[1]; L vs Cont, 4h",0.03384
same,"logFC (Fold change), gene recF (ABUW_RS00015)","[1]; L vs Cont, 4h",-0.08717
same,"log2FC, gene ABUW_RS01945 (acyl-CoA thioesterase II)","[1]; L vs Cont, 4h",0.543
same,"log2FC, gene ABUW_RS02545 (acyl-CoA thioesterase)","[1]; L vs Cont, 4h",-0.1794
same,"log2FC, gene ABUW_RS05045 (acyl-CoA thioesterase)","[1]; L vs Cont, 4h",0.3247
same,"log2FC, gene ABUW_RS17575 (acyl-CoA thioesterase)","[1]; L vs Cont, 4h",-0.8383
same,"4h_1h logFC (Differential gene expression for all genes), Geneid ABUW_RS00005",[1]; L,-0.3028
same,"4h_1h logFC (Differential gene expression for all genes), Geneid ABUW_RS00010",[1]; L,-0.2642
same,"4h_1h logFC (Differential gene expression for all genes), Geneid ABUW_RS00015",[1]; L,-0.2929
same,"4h_1h logFC (Differential gene expression for all genes), Geneid ABUW_RS00020",[1]; L,0.3892
same,MIC A. baumannii AB5075,[2],0.5 µg/mL
same,MIC A. baumannii ATCC 19606,[3],1 µg/mL
same,MIC A. baumannii FADDI-AB030,[4],0.5 µg/mL
same,MIC A. baumannii FADDI-AB034,[5],0.5 µg/mL
same,MIC P. aeruginosa ATCC 27853,[6],0.5 µg/mL
same,increase of MIC in the presence of lung surfactant,[6]; 10% Survanta vs none,8 fold
same,"MIC, 10% Survanta","[6]; P. aeruginosa ATCC 27853, 10% Survanta",8 µg/mL
same,"MIC, No Survanta","[6]; P. aeruginosa ATCC 27853, no surfactant",1 µg/mL
same,MIC P. aeruginosa FADDI-PA025,[7],2 µg/mL
same,MIC P. aeruginosa FADDI-PA038,[8],1 µg/mL
